Measured values taken from ChEMBL document CHEMBL2331312, “Dimerized linear mimics of a natural cyclopeptide (TMC-95A) are potent noncovalent inhibitors of the eukaryotic 20S proteasome” (J Med Chem, 2013).
The source made the active and inactive calls. The calls are words filed in the database; no cut-off is given here.

Columns and labels:
[1] = target: T1, Proteasome Macropain subunit MB1 (Homo sapiens, UniProt P28074)
T1 sequence (P28074 whole entry): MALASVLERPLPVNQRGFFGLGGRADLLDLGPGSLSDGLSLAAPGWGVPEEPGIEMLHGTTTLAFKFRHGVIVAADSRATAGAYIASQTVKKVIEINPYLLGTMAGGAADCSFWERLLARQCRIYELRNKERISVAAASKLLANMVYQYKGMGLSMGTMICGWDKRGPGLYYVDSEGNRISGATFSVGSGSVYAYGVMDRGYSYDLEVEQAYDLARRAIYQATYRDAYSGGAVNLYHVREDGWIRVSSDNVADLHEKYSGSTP
Description: Inhibition of chymotrypsin-like activity of proteasome beta-5 subunit in HEK293 cells using Suc-LLVY-Glo as substrate incubated for 2 hrs prior to substrate addition measured after 10 mins by cell-based proteasome-Glo beta5 assay

[2] = target: T2, Proteasome component C5 (Homo sapiens) (UniProt P20618); assay: Inhibition of postacid activity of 20s proteasome beta-1 subunit in HEK293 cells using Z-nLPnLD-Glo as substrate at 10 uM incubated for 2 hrs prior to substrate addition measured after 10 mins by cell-based proteasome-Glo beta1 assay
T2 sequence (whole entry): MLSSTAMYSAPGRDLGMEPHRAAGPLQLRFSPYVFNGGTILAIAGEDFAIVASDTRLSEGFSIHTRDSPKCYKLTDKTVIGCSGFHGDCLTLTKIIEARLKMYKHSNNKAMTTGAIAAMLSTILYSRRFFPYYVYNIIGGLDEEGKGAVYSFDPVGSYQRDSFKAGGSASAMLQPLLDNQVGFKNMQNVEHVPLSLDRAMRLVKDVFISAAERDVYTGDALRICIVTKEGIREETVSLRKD

[3] = target: T3, Calpain-1 catalytic subunit (Homo sapiens) (UniProt P07384); assay: Inhibition of human calpain 1 using Suc-LLVY-AMC as substrate assessed as remaining enzyme activity at 20 uM incubated for 5 mins prior to substrate addition measured for 30 mins by fluorescence assay
T3 sequence (whole entry): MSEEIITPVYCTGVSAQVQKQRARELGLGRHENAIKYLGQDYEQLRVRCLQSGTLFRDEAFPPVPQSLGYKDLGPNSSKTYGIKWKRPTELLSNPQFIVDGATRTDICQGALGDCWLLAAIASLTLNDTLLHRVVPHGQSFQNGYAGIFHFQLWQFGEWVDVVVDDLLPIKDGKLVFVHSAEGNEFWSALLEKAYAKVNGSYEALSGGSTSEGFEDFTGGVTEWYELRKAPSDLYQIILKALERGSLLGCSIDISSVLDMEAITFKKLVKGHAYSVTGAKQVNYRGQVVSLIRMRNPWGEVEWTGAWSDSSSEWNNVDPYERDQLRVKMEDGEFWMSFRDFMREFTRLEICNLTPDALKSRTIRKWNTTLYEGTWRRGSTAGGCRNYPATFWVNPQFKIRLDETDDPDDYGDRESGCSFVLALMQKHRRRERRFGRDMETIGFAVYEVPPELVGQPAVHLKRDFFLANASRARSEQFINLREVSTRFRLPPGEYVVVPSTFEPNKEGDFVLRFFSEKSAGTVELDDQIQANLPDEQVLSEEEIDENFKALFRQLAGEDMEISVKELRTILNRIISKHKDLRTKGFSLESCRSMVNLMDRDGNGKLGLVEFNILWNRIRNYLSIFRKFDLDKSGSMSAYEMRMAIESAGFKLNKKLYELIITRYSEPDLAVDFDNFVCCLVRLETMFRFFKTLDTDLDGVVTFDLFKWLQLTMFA

[4] = target: T1, Proteasome Macropain subunit MB1; remark: listed apart in the source
Description: (§2) Inhibition of chymotrypsin-like activity of human constitutive 20s proteasome beta-5 subunit using Suc-LLVY-AMC as substrate assessed as remaining activity incubated for 15 mins prior to substrate addition measured after 45 mins by fluorescence assay

[5] = target: T1, Proteasome Macropain subunit MB1; remark: listed apart in the source
Description: Competitive inhibition of chymotrypsin-like activity of human constitutive 20s proteasome beta-5 subunit using Suc-LLVY-AMC as substrate assessed as inhibition constant for dissociation of enzyme-inhibitor complex incubated for 15 mins prior to substrate addition measured after 45 mins by fluorescence assay

[6] = target: Cathepsin B (Homo sapiens) (UniProt P07858); assay: Inhibition of human cathepsin B using Suc-LLVY-AMC as substrate assessed as remaining enzyme activity at 20 uM incubated for 15 mins prior to substrate addition measured for 30 mins by fluorescence assay
[7] = target: T4, Proteasome Macropain subunit PRE2 (Saccharomyces cerevisiae S288c, UniProt P30656)
T4 sequence (P30656 whole entry): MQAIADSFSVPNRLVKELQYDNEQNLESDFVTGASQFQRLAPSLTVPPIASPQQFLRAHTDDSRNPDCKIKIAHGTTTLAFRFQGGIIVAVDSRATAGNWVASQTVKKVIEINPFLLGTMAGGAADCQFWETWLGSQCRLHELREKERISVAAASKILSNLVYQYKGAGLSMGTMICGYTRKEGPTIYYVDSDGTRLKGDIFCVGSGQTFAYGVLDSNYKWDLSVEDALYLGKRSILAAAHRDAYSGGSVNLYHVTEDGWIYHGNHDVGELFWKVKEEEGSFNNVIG
Description: Inhibition of chymotrypsin-like activity of yeast 20S proteasome beta-5 subunit using Suc-LLVY-AMC as substrate measured up to 45 mins by fluorescence assay

[8] = target: T1, Proteasome Macropain subunit MB1; assay: (§1) Noncompetitive inhibition of chymotrypsin-like activity of human constitutive 20s proteasome beta-5 subunit using Suc-LLVY-AMC as substrate assessed as inhibition constant for dissociation of enzyme-substrate-inhibitor complex incubated for 15 mins prior to substrate addition measured after 45 mins by fluorescence assay
[9] = target: Proteasome Macropain subunit (Homo sapiens, UniProt P49721); assay: Inhibition of trypsin-like activity of human constitutive 20s proteasome beta-2 subunit using Boc-LRR-AMC as substrate assessed as remaining activity incubated for 15 mins prior to substrate addition measured after 45 mins by fluorescence assay
[10] = target: T1, Proteasome Macropain subunit MB1; assay: as §1, with “enzyme-inhibitor” for “enzyme-substrate-inhibitor”
Proteasome component C5 = target: T5, Proteasome component C5 (Homo sapiens, UniProt P20618)
T5 sequence (P20618 whole entry): T2 sequence (whole entry)
Description: Inhibition of postacid activity of human constitutive 20s proteasome beta-1 subunit using Z-LLE-betaNA as substrate assessed as remaining activity incubated for 15 mins prior to substrate addition measured after 45 mins by fluorescence assay

[11] = target: T1, Proteasome Macropain subunit MB1; remark: listed apart in the source
Description: as §2

[12] = Half life of the compound in RPMI culture medium in presence of 20% fetal calf serum at 37 degC by HPLC analysis; type: physicochemical; conditions: cattle, RPMI culture medium with 20% fetal calf serum
[13] = target: T1, Proteasome Macropain subunit MB1; assay: as §1, with “Mixed type” for “Noncompetitive”, “enzyme-inhibitor” for “enzyme-substrate-inhibitor”
[14] = target: T1, Proteasome Macropain subunit MB1; assay: as §1, with “Mixed type” for “Noncompetitive”
[15] = target: T2, Proteasome component C5 (Homo sapiens); assay: Inhibition of postacid activity of 20s proteasome beta-1 subunit in HEK293 cells using Z-nLPnLD-Glo as substrate at 20 uM incubated for 2 hrs prior to substrate addition measured after 10 mins by cell-based proteasome-Glo beta1 assay

Proteasome Macropain subunit, sequence (P49721 whole entry): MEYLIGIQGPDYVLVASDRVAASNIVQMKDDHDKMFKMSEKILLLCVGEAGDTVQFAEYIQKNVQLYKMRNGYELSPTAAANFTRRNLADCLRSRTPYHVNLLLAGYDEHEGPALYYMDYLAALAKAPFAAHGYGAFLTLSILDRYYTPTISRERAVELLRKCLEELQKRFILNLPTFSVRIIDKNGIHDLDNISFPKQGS

IC50 [1] [nM]	inhibition [2] [%]	inhibition [3]	IC50 [4] [nM]	Ki [5] [nM]	inhibition [6]	IC50 [7] [nM]	Ki [8] [nM]	IC50 [9]	Ki [10] [nM]	IC50 (Proteasome component C5)	IC50 [11]	half-life [12] [h]	Ki [13] [nM]	Ki [14] [nM]	inhibition [15] [%]	SMILES
476	30	inactive	19.1	10.6	inactive	–	–	–	–	–	–	–	–	–	–	C[C@H](NC(=O)[C@H](Cc1ccc(OCc2ccccc2)cc1)NC(=O)CCCCCNC(=O)CCCCCNC(=O)CCCCCNC(=O)CCCCC(=O)NCCCCCC(=O)NCCCCCC(=O)NCCCCCC(=O)N[C@@H](Cc1ccc(OCc2ccccc2)cc1)C(=O)N[C@@H](C)C(=O)N[C@@H](C[C@]1(O)C(=O)Nc2ccccc21)C(=O)NCc1ccccc1)C(=O)N[C@@H](C[C@]1(O)C(=O)Nc2ccccc21)C(=O)NCc1ccccc1
–	–	inactive	11600	–	inactive	9400	24500	Not Active	24500	–	–	–	–	–	–	C[C@H](NC(=O)[C@@H](N)Cc1ccc(OCc2ccccc2)cc1)C(=O)N[C@@H](C[C@]1(O)C(=O)Nc2ccccc21)C(=O)NCc1ccccc1
–	–	–	5.4	2.3	–	–	–	–	–	–	–	–	–	–	–	C/C=C\NC(=O)[C@H]1NC(=O)[C@H](CC(N)=O)CC(=O)[C@@H](NC(=O)C(=O)[C@@H](C)CC)Cc2ccc(O)c(c2)-c2cccc3c2NC(=O)[C@@]3(O)[C@@H]1O
–	–	inactive	20	6	inactive	–	–	–	–	–	–	–	–	–	–	C[C@H](NC(=O)[C@H](Cc1ccc(OCc2ccccc2)cc1)NC(=O)CCCCCNC(=O)CCCCCNC(=O)CCCCCNC(=O)CCCCCNC(=O)CCCCC(=O)NCCCCCC(=O)NCCCCCC(=O)NCCCCCC(=O)NCCCCCC(=O)N[C@@H](Cc1ccc(OCc2ccccc2)cc1)C(=O)N[C@@H](C)C(=O)N[C@@H](C[C@]1(O)C(=O)Nc2ccccc21)C(=O)NCc1ccccc1)C(=O)N[C@@H](C[C@]1(O)C(=O)Nc2ccccc21)C(=O)NCc1ccccc1
–	–	inactive	–	–	inactive	–	–	Not Active	–	Not Active	Not Active	–	–	–	–	COC(=O)CCCCCNC(=O)CCCCCNC(=O)CCCCCNC(=O)CCCCCNC(=O)CCCCCNC(=O)CCCCCNC(=O)OC(C)(C)C
252	–	inactive	460	–	inactive	–	–	–	–	–	–	19	101	316	–	C[C@H](NC(=O)[C@H](Cc1ccc(OCc2ccccc2)cc1)NC(=O)CCCCCNC(=O)CCCCCNC(=O)CCCCCNC(=O)OC(C)(C)C)C(=O)N[C@@H](C[C@]1(O)C(=O)Nc2ccccc21)C(=O)NCc1ccccc1
472	25	inactive	22.7	11.4	inactive	–	–	–	–	–	–	–	–	–	–	C[C@H](NC(=O)[C@H](Cc1ccc(OCc2ccccc2)cc1)NC(=O)CCCCCNC(=O)CCCCCNC(=O)CCCCCNC(=O)CCCCCNC(=O)CCCCCNC(=O)CCCCC(=O)N[C@@H](Cc1ccc(OCc2ccccc2)cc1)C(=O)N[C@@H](C)C(=O)N[C@@H](C[C@]1(O)C(=O)Nc2ccccc21)C(=O)NCc1ccccc1)C(=O)N[C@@H](C[C@]1(O)C(=O)Nc2ccccc21)C(=O)NCc1ccccc1
541	–	inactive	25.8	10.3	inactive	–	–	–	–	–	–	50	–	–	40	C[C@H](NC(=O)[C@H](Cc1ccc(OCc2ccccc2)cc1)NC(=O)CCCCCNC(=O)CCCCCNC(=O)CCCCCNC(=O)CCCCC(=O)N[C@@H](Cc1ccc(OCc2ccccc2)cc1)C(=O)N[C@@H](C)C(=O)N[C@@H](C[C@]1(O)C(=O)Nc2ccccc21)C(=O)NCc1ccccc1)C(=O)N[C@@H](C[C@]1(O)C(=O)Nc2ccccc21)C(=O)NCc1ccccc1
–	–	inactive	707	–	inactive	–	–	–	–	–	–	–	67	200	–	C[C@H](NC(=O)[C@H](Cc1ccc(OCc2ccccc2)cc1)NC(=O)CCCCCNC(=O)CCCCCNC(=O)CCCCCNC(=O)CCCCCNC(=O)OC(C)(C)C)C(=O)N[C@@H](C[C@]1(O)C(=O)Nc2ccccc21)C(=O)NCc1ccccc1
756	37	inactive	25.9	10.8	inactive	–	–	–	–	–	–	–	–	–	–	C[C@H](NC(=O)[C@H](Cc1ccc(OCc2ccccc2)cc1)NC(=O)CCCCCNC(=O)CCCCCNC(=O)CCCCCNC(=O)CCCCCNC(=O)CCCCC(=O)N[C@@H](Cc1ccc(OCc2ccccc2)cc1)C(=O)N[C@@H](C)C(=O)N[C@@H](C[C@]1(O)C(=O)Nc2ccccc21)C(=O)NCc1ccccc1)C(=O)N[C@@H](C[C@]1(O)C(=O)Nc2ccccc21)C(=O)NCc1ccccc1
7970	–	inactive	3190	–	inactive	1500	–	–	–	–	–	50	2430	5030	–	C[C@H](NC(=O)[C@H](Cc1ccc(OCc2ccccc2)cc1)NC(=O)OC(C)(C)C)C(=O)N[C@@H](C[C@]1(O)C(=O)Nc2ccccc21)C(=O)NCc1ccccc1
–	–	inactive	–	–	inactive	–	–	Not Active	–	Not Active	Not Active	–	–	–	–	COC(=O)CCCCCNC(=O)CCCCCNC(=O)CCCCCNC(=O)CCCCC(=O)OC
